For one data set, the target named is T1, NMDAR2B (Homo sapiens, UniProt Q13224).
T1 construct: expressed in transfected cells; host or cells: HEK cells (membrane extract)
Nature of the data set: [3H]MK-801 binding, NMDAR2B expressing HEK cell membranes. Type of data set: biochemical. The conditions noted are these: 50 μM glutamate; for EC50: read-out: NMDAR2B B: log EC50 (converted); for Emax: read-out: NMDAR2B A: % maximal [3H]MK-801 binding relative to 1 mM glycine. On the procedure:
(§1) Assays were conducted as described by Moskal et al., “GLYX-13: a monoclonal antibody-derived peptide that acts as an N-methyl-D-aspartate receptor modulator,” Neuropharmacology, 49, 1077-87, 2005. These studies were designed to determine if the test compounds act to facilitate NMDAR activation in NMDAR2A, NMDAR2B, NMDAR2C or NMDAR2D expressing HEK cell membranes as measured by increases in [^3H]MK-801 binding.
(§2) In the assay, 300 μg of NMDAR expressing HEK cell membrane extract protein was preincubated for 15 minutes at 25° C. in the presence of saturating concentrations of glutamate (50 μM) and varying concentrations of test compound (1×10^−15M−1×10^−7M), or 1 mM glycine. Following the addition of 0.3 μCi of [^3H]MK-801 (22.5 Ci/mmol), reactions were again incubated for 15 minutes at 25° C. (nonequilibrium conditions). Bound and free [^3H]MK-801 were separated via rapid filtration using a Brandel apparatus.
(§3) In analyzing the data, the DPM (disintegrations per minute) of [^3H]MK-801 remaining on the filter were measured for each concentration of test compound or for 1 mM glycine. The DPM values for each concentration of a ligand (N=2) were averaged. The baseline value was determined from the best fit curve of the DPM values modeled using the GraphPad program and the log(agonist) vs. response(three parameters) algorithm was then subtracted from all points in the dataset. The % maximal [^3H]MK-801 binding was then calculated relative to that of 1 mM glycine: all baseline subtracted DPM values were divided by the average value for 1 mM glycine. The EC50 and % maximal activity were then obtained from the best fit curve of the % maximal [^3H]MK-801 binding data modelled using the GraphPad program and the log(agonist) vs. response(three parameters) algorithm.
(§4) The tables below summarize the results for the wild type NMDAR agonists NMDAR2A, NMDAR2B, NMDAR2C, and NMDAR2D, and whether the compound is not an agonist (−), is an agonist (+), or is a strong agonist (++), where column A is based on the % maximal [^3H]MK-801 binding relative to 1 mM glycine (−=0; <100%=+; and >100%=++); and column B is based on log EC50 values (0=−; ≥1×10^−9M (e.g., −8)=+; and <1×10^−9M (e.g., −10)=++).

In another data set the target is T2, NMDAR2A (Homo sapiens, UniProt Q12879).
T2 construct: expressed in transfected cells; host or cells: HEK cells (membrane extract)
T2 sequence (Q12879 23-1464, species assumed, other chains not shown): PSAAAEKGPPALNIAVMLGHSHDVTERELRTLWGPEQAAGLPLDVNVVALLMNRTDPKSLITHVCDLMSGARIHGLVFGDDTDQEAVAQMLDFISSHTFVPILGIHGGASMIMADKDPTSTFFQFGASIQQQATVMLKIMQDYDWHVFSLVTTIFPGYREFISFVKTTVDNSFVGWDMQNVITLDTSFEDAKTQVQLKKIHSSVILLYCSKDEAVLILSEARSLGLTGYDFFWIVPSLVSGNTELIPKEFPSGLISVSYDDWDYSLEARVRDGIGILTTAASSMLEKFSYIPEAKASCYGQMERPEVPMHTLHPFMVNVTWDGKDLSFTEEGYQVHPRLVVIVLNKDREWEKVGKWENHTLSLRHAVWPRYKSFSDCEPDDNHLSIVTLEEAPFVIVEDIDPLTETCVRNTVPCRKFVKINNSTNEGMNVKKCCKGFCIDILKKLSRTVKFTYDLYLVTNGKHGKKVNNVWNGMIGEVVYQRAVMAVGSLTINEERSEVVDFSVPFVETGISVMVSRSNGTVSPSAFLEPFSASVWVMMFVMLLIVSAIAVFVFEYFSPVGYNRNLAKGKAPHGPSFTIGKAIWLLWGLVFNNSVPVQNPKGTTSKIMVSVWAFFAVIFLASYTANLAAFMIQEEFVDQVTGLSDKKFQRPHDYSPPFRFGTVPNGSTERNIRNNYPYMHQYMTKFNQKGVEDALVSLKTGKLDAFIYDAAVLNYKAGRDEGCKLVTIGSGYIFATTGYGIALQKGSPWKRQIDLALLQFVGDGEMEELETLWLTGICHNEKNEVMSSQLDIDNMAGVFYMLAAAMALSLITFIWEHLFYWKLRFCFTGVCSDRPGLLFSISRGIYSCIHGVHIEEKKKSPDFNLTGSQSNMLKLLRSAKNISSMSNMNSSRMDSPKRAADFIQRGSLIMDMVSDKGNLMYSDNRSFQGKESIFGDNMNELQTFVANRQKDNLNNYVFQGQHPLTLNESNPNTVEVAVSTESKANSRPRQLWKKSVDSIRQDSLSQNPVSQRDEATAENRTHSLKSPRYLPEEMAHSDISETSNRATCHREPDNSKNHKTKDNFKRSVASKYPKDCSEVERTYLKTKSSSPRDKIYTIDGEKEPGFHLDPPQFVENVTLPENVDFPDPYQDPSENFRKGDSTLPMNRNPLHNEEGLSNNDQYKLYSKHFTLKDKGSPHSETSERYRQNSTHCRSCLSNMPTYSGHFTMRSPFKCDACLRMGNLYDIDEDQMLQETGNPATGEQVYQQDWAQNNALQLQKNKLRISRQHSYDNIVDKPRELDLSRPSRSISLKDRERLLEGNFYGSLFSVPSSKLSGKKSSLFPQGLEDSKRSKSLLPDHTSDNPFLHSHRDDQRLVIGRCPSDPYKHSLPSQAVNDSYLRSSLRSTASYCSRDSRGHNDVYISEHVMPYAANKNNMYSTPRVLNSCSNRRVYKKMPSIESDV
Put plainly: [3H]MK-801 binding, NMDAR2A expressing HEK cell membranes. The conditions noted are these: 50 μM glutamate; for EC50: read-out: NMDAR2A B: log EC50 (converted); for Emax: read-out: NMDAR2A A: % maximal [3H]MK-801 binding relative to 1 mM glycine. The class given is biochemical. Here is the method: as §1, §2, §3, §4

Data set [1] is described as follows: Oral pharmacokinetics (plasma, brain, CSF). The conditions noted are these: rat, 10 mg/kg, per os; for bioavailability / AUC(0-t) / Cmax / Tmax: Sprague Dawley, plasma, po; for bioavailability: % F; for AUC(0-t): AUClast; for AUC(0-t) / Cmax / Tmax: normal saline (compounds marked * in 1% NMP and 99% normal saline).
Experimental: Plasma, brain, and CSF samples were analyzed at various time points over a 24 hour period.
A short description of a further data set: IV pharmacokinetics. The conditions noted are these: Sprague Dawley, rat, in vivo, iv, 2 mg/kg, normal saline (compounds marked * in 1% NMP and 99% normal saline); for C0: read-out: C0; for Vd: read-out: Vss. The class given is in vivo, Sprague Dawley rats. The source says: The table below summarizes the results of the IV pharmacokinetics.
Data set [2] deals with rats' response (reduced floating time). Nature of the data set: Porsolt forced swim test. Type of data set: in vivo, Sprague Dawley rats. The conditions noted are these: for % reduction in float time: relative to vehicle group. On the procedure:
A non-clinical in vivo pharmacology study (Porsolt assay) was performed to measure antidepressant-like effects. A negative control (0.5% sodium carboxymethyl cellulose in 0.9% sterile saline vehicle) and a positive control (fluoxetine) are shown for comparison against test compound. The study allowed for the evaluation of the effects of each compound on the Porsolt forced swim test as assessed by the rats' response (reduced floating time) during a 5-minute swimming test.
Male 2-3 month old Sprague Dawley rats were used (Harlan, Indianapolis, Ind.). Rats were housed in Lucite cages with aspen wood chip bedding, maintained on a 12:12 light:dark cycle (lights on at 5 AM), and given ad libitum access to Purina lab chow (USA) and tap water throughout the study.
The Porsolt forced swim test adapted for use in rats was performed as described by Burgdorf et al., (The long-lasting antidepressant effects of rapastinel (GLYX-13) are associated with a metaplasticity process in the medial prefrontal cortex and hippocampus. Neuroscience 308:202-211, 2015). Animals were placed in a 46 cm tall×20 cm in diameter clear glass tube filled to 30 cm with tap water (23±1° C.) for 15 min on the first day (habituation) and 5 min on the subsequent test day. Positive control fluoxetine was dosed 3 times (24 h, 5 h and 1 h) prior to testing. Animals were tested 1 h post-dosing with the test compounds or vehicle. Animals received a 15 min habituation session 1 day before the 5 min test. A subset of compounds tested at 1 h post-dosing were retested at 1 wk post-dosing in the same sets of animals. Water was changed after every other animal. Animals were videotaped, and floating time as defined as the minimal amount of effort required to keep the animals head above water was scored offline by a blinded experimenter with high inter-rater reliability (Pearson's r>0.9).
Each compound tested at dose level shown. Significance vs. vehicle group for each experiment is marked. […] A compound marked “No” was not statistically significant from vehicle. Data was averaged for test compound and vehicle groups (N approximately 8 per group) and the percent reduction in floating for group treated with test compound relative to group treated with vehicle is shown.

The mark [3] stands for this setting: 1 wk post-dose, 0.1 mg/kg, 0.1 mg/kg.
Setting [4] is: 1 wk post-dose, 0.1 mg/kg, Yes = p<=0.05 from vehicle.
[5] abbreviates: 1 h post-dose, 0.1 mg/kg, 0.1 mg/kg.
The mark [6] stands for this setting: 1 h post-dose, 0.1 mg/kg, Yes = p<=0.05 from vehicle.

Here are results for 13 compounds from patent publication US20230131402A1, “SPIRO-LACTAM NMDA RECEPTOR MODULATORS AND USES THEREOF” (Aptinyx Inc., priority 2016, published 2023).

T1 sequence (Q13224 27-1484, species assumed, other chains not shown): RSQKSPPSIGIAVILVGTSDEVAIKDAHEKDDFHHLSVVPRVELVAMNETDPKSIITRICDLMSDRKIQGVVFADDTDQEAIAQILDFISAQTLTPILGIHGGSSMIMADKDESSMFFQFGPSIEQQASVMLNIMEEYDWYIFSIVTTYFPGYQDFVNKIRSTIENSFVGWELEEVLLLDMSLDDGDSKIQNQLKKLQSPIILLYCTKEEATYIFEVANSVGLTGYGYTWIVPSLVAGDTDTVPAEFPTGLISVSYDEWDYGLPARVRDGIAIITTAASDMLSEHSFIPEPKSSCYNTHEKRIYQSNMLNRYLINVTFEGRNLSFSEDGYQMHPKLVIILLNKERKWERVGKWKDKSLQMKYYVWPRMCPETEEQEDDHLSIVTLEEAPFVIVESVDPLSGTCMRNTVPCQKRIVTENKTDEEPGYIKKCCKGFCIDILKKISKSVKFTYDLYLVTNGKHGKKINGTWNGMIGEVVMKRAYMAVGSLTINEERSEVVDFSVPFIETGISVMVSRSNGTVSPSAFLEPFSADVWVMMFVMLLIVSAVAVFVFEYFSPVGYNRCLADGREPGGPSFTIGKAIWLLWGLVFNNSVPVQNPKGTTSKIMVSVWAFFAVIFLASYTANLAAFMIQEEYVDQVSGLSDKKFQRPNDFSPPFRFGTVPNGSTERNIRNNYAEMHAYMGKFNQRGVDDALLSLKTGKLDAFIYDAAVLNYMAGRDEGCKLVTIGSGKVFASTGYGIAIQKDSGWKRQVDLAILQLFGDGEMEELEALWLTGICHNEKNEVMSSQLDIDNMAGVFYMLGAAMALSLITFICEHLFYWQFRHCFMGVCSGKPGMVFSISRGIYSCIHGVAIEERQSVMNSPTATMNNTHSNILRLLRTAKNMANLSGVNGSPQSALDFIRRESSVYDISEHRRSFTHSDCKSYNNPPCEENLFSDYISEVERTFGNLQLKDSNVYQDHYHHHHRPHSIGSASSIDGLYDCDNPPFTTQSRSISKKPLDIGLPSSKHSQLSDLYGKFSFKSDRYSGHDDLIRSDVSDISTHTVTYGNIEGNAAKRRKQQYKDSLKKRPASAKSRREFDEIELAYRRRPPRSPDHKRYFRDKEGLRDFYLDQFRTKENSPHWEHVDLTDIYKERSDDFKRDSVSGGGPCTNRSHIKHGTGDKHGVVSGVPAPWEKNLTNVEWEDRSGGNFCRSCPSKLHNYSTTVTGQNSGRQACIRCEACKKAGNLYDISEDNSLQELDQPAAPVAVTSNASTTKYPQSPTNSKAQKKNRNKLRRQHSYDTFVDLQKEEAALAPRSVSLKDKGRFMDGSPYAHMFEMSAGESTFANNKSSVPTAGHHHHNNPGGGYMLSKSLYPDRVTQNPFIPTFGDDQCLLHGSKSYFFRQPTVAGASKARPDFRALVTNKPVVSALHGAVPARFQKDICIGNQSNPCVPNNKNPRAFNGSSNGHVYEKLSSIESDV

Consider `CC(=O)N1CCN(Cc2ccccc2)C2(CCNC2=O)C1` (stereo not shown) [ES-320], for which, on NMDAR2B, the “NMDAR2B A: % maximal [3H]MK-801 binding relative to 1 mM glycine” value is given as “− (−=0)”. Moreover, the “NMDAR2A A: % maximal [3H]MK-801 binding relative to 1 mM glycine” value on NMDAR2A was “− (−=0)”.
As usually defined, the bioavailability is the share of a dose that reaches the circulation, judged against a reference dose that is usually intravenous. Higher therefore signals much systemic uptake. One may read the AUC(0-t) as exposure summed from dosing to a finite time, without extrapolation to infinity. Usually Cmax stands for the maximum level reached in the sampled fluid or tissue. The term Tmax denotes the time from dosing to the highest level. As a reminder, the EC50 is the concentration that produces a half-maximal response. The clearance is the rate of elimination divided by the concentration. A word on the half-life: it is the time needed for the level to fall by half in the phase considered. A low value points to rapid decline. With `CC(C)C(=O)N1CCN(Cc2ccccc2)C2(CCNC2=O)C1` (stereo not shown) [ES-321], in data set [1], the bioavailability came to 16%, the AUC(0-t) worked out at 466 ng·h/mL, the maximum concentration (Cmax) is 795 ng/mL and the Tmax was 15 min. Also, on NMDAR2B, the “NMDAR2B A: % maximal [3H]MK-801 binding relative to 1 mM glycine” value is on record as “++ (>100%=++)” and the EC50 was under 1 nM. At NMDAR2A, the “NMDAR2A A: % maximal [3H]MK-801 binding relative to 1 mM glycine” value is “+ (<100%=+)” and the EC50 was over 1 nM. Also, in the data set “IV pharmacokinetics”, the AUC(0-t) is 577 ng·h/mL, the clearance worked out at 58.6 mL/min/kg, the half-life is 10.2 min and the C0 stood at 2570 ng/mL. For the same compound, in “IV pharmacokinetics”, the Vd amounted to 0.71 L/kg.
For `O=C1NCC12CN(Cc1ccccc1)CCN2Cc1ccccc1` (single isomer, unassigned) [EA-2, 5,8-Dibenzyl-2,5,8-Triazaspiro[3.5]Nonan-1-One], the “NMDAR2B A: % maximal [3H]MK-801 binding relative to 1 mM glycine” value at NMDAR2B was “− (−=0)”. Moreover, the “NMDAR2A A: % maximal [3H]MK-801 binding relative to 1 mM glycine” value on NMDAR2A is “− (−=0)”.
As for `CC(C)C(=O)N1CCN(Cc2ccccc2)C2(CCNC2=O)C1` (stereo not shown) [ES-322], the “NMDAR2B A: % maximal [3H]MK-801 binding relative to 1 mM glycine” value at NMDAR2B is “− (−=0)”. At NMDAR2A, the “NMDAR2A A: % maximal [3H]MK-801 binding relative to 1 mM glycine” value is “− (−=0)”.
With `CC(C)(C)OC(=O)N1CCNC2(C1)CN(CC(N)=O)C2=O` (stereo not shown) [ER-141], in data set [1], the bioavailability was found to be 31%, the AUC(0-t) stood at 2620 ng·h/mL, the peak level (Cmax) was 962 ng/mL and the Tmax is 49.8 min. Further, the “CSF Cmax” value in data set [1] (CSF) was 42 ng/mL. Further, on NMDAR2B, the “NMDAR2B A: % maximal [3H]MK-801 binding relative to 1 mM glycine” value is “+ (<100%=+)” and the EC50 was under 1 nM. In addition, the “NMDAR2A A: % maximal [3H]MK-801 binding relative to 1 mM glycine” value at NMDAR2A is “− (−=0)”. In the data set “IV pharmacokinetics”, the AUC(0-t) is 1670 ng·h/mL, the clearance turned out to be 19.9 mL/min/kg, the half-life is 33 min and the C0 came to 4280 ng/mL. In addition, in the data set “IV pharmacokinetics”, the Vd came to 0.7 L/kg.
Take `CC(C)(C)OC(=O)N1CCNC2(C1)CN(CC(N)=O)C2=O` (stereo not shown) [ER-142]: at NMDAR2B, the “NMDAR2B A: % maximal [3H]MK-801 binding relative to 1 mM glycine” value is given as “− (−=0)”. Moreover, at NMDAR2A, the “NMDAR2A A: % maximal [3H]MK-801 binding relative to 1 mM glycine” value is given as “+ (<100%=+)” and the EC50 is under 1 nM.
For the compound `CC(C)(C)OC(=O)N1CCNC2(CCNC2=O)C1` (single isomer, unassigned) [EM, Tert-Butyl 1-Oxo-2,6,9-Triazaspiro[4.5]Decane-9-Carboxylate], at NMDAR2B, the “NMDAR2B A: % maximal [3H]MK-801 binding relative to 1 mM glycine” value is “++ (>100%=++)” and the EC50 was over 1 nM. In addition, on NMDAR2A, the “NMDAR2A A: % maximal [3H]MK-801 binding relative to 1 mM glycine” value is on record as “+ (<100%=+)” and the EC50 was under 1 nM.
`O=C1NCCC12CNCCN2` (stereo not shown) [ES-301]: at NMDAR2B, the Emax is under 100% and the EC50 was under 1 nM. Further, on NMDAR2A, the Emax was found to be 0%.
Regarding `CNCCC(Oc1ccc(C(F)(F)F)cc1)c1ccccc1` (stereo not shown) [Fluoxetine, fluoxetine, reference compound], the Significance vs. vehicle result in data set [2] (positive control, 20 mg/kg, dosed 3 times (24 h, 5 h and 1 h) prior to testing) is reported as “Yes”.
Consider `O=C1NCCC12CNCCN2` (stereo not shown) [ES-302], for which, in data set [1], the bioavailability is 12%, the area under the curve AUC(0-t) is 1040 ng·h/mL, the Cmax worked out at 340 ng/mL and the Tmax amounted to 49.8 min. On NMDAR2B, the “NMDAR2B A: % maximal [3H]MK-801 binding relative to 1 mM glycine” value is “++ (>100%=++)” and the EC50 is under 1 nM. Besides, the “NMDAR2A A: % maximal [3H]MK-801 binding relative to 1 mM glycine” value at NMDAR2A is reported as “− (−=0)”. Besides, in the data set “IV pharmacokinetics”, the AUC(0-t) was 1720 ng·h/mL, the clearance amounted to 18.9 mL/min/kg, the half-life is 142 min and the C0 came out at 6090 ng/mL. For the same compound, the Vd in “IV pharmacokinetics” came to 1.33 L/kg.
On to `C[C@@H](O)[C@H](N)C(=O)N1CCNC2(CCNC2=O)C1` (stereo partly shown) [ES-335], for which the Emax at NMDAR2B and at NMDAR2A was under 100% throughout. In addition, the EC50 on NMDAR2B and on NMDAR2A was under 1 nM in each case. Besides, the “% reduction in float time” value stood at 72.9% in data set [2] (setting [3]) and 58.5% in data set [2] (setting [5]). In addition, the Significance vs. vehicle entry in data set [2] (setting [4]) and in data set [2] (setting [6]) was “Yes” each time.
In the case of `CN1CCN(Cc2ccccc2)C2(CCNC2=O)C1` (stereo not shown) [ES-315], the Emax at NMDAR2B and on NMDAR2A was under 100% throughout. Also, the EC50 at NMDAR2B and on NMDAR2A was under 1 nM throughout. The “% reduction in float time” value in data set [2] (setting [3]) worked out at 25.0%; in data set [2] (setting [5]), 44.1%. The Significance vs. vehicle entry was “No” in data set [2] (setting [4]) and “Yes” in data set [2] (setting [6]).
Regarding `CC(C)(C)OC(=O)N1CCNC2(CCNC2=O)C1` (single isomer, unassigned) [EN, Tert-Butyl 1-Oxo-2,6,9-Triazaspiro[4.5]Decane-9-Carboxylate], the “NMDAR2B A: % maximal [3H]MK-801 binding relative to 1 mM glycine” value on NMDAR2B is on record as “− (−=0)”. The “NMDAR2A A: % maximal [3H]MK-801 binding relative to 1 mM glycine” value on NMDAR2A was “− (−=0)”.
